As for `CN(C(=O)c1ccnc(Cl)c1)c1ccccc1N1CCN(C/C=C/c2ccc(Cl)cc2)CC1` [Example 2, 2-chloro-N-(2-{4-[(E)-3-(4-chloro-phenyl)-allyl]-piperazin-1-yl}-phenyl)-N-methyl-isonicotinamide], the melting point (usually the temperature, or range, at which the solid turns liquid) fell in the range of 117 to 120 °C. Molecule `CN1CCN(c2cc(Cl)ccc2NC(=O)c2ccnc(Cl)c2)CC1` [Example 3, 2-Chloro-N-[4-chloro-2-(4-methyl-piperazin-1-yl)-phenyl]-isonicotinamide] had a melting point of 118 to 120 °C. Consider `COCCCNC(=O)Nc1ccc(F)cc1N1CCN(C/C=C/c2ccc(Cl)cc2)CC1` [Example 4, 1-(2-{4-[(E)-3-(4-chloro-phenyl)-allyl]-piperazin-1-yl}-4-fluoro-phenyl)-3-(3-methoxy-propyl)-urea], for which the melting point lay within 86 to 90 °C. In the case of `O=C1N(Cc2cnc(Cl)s2)CCN1c1ccc(F)cc1N1CCN(C/C=C/c2ccc(Cl)cc2)CC1` [Example 5, 1-(2-{4-[(E)-3-(4-Chloro-phenyl)-allyl]-piperazin-1-yl}-4-fluoro-phenyl)-3-(2-chloro-thiazol-5-ylmethyl)-imidazolidin-2-one], the melting point fell in the range of 72 to 77 °C. Regarding `O=C(Nc1cnc(Cl)nc1N1CCN(C/C=C/c2ccc(OC(F)(F)F)cc2)CC1)c1ccnc(Cl)c1` [Example 7, 2-chloro-N-(2-chloro-4-{4-[(E)-3-(4-trifluoromethoxy-phenyl)-allyl]-piperazin-1-yl}-pyrimidin-5-yl)-isonicotinamide], the melting point was 210 to 211 °C. For `Cc1nn(C)c(N2CCN(C/C=C/c3ccc(Cl)cc3)CC2)c1NC(=O)c1ccnc(Cl)c1` [Example 8, 2-Chloro-N-(5-{4-[(E)-3-(4-chloro-phenyl)-allyl]-piperazin-1-yl}-1,3-dimethyl-1H-pyrazol-4-yl)-isonicotinamide], the melting point is 85 to 88 °C. `O=C(Nc1c(Cl)cc(Cl)cc1N1CCN(C/C=C/c2ccc(Cl)cc2)CC1)c1ccnc(Cl)c1` [Example 10, 2-chloro-N-(2-{4-[(E)-3-(4-chloro-phenyl)-allyl]-piperazin-1-yl}-4,6-dichloro-phenyl)-isonicotinamide] gave a melting point of 79 to 80 °C.

The values above are taken from patent publication US7807679B2, “Piperazine derivatives and their use in controlling pests” (Syngenta Crop Protection, Inc., priority 2004, dated 2010).
